Biological target: T1, recombinant human ARG1 (Homo sapiens, UniProt P05089)
T1 sequence (P05089 1-322): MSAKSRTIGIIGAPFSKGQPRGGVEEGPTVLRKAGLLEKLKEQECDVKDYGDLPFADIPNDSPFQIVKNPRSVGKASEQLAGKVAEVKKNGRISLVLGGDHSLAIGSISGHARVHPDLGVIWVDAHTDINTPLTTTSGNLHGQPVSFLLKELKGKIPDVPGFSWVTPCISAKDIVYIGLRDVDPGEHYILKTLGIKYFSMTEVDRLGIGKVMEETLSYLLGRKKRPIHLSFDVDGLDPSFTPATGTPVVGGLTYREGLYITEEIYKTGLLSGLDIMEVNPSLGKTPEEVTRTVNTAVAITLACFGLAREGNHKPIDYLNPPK
Assay: Arginase coupled enzymatic assay using recombinant human ARG1
Assay type: biochemical
Conditions: 2 nM ARG1, 0.8 mM L-Arginine, 10 mM sodium phosphate pH 7.4, 0.1 mM MnCl2, 37° C., absorption at 570 nm; read-out: hARG1 potency (IC50)
Experimental: Purified recombinant human ARG1 and ARG2 were prepared in 50 mM Bicine, pH 8.5, 100 μM MnCl2, 20% glycerol and 1mM DTT at a final stock concentration of 14.4 μM and 7.56 μM respectively. 2.5 nM of either ARG1 or ARG2 were incubated with varying concentrations of compounds in 10 mM sodium phosphate, pH 7.4, 0.1 mM MnCl2 and 2.5% DMSO in a total volume of 40 μl in a 384-well microplate (Corning™ #3640) at 37° C. for 1 h. The arginase enzymatic reaction was initiated by addition of 10 μl of 4 mM L-Arginine pre-incubated in 10 mM sodium phosphate, pH 7.4, and 0.1 mM MnCl2 at 37° C. into the enzyme and compound mixture, giving the final reaction conditions: 2 nM of ARG1 or ARG2 and 0.8 mM of L-Arginine in 10 mM sodium phosphate, pH 7.4, 0.1 mM MnCl2 and 2% DMSO with varying concentrations of compounds. Following 2 h incubation at 37° C., the arginase enzymatic reaction was stopped by transfer of 10 μl of reaction into 10 μl of detection mix (204 μM Amino-2-Borono-6-Hexanoic Acid, 0.25 μl Arginase Enzyme mix, 0.25 μl Arginase Developer, 0.25 μl Arginase Converter Enzyme in Arginase Assay Buffer from Arginase Activity Colorimetric Assay Kit, BioVision Inc. #K755-100) in a transparent 384-well microplate (Greiner #781801). The plate was immediately put into a plate reader (Synergy™ Neo2 Multi-Mode Microplate Reader) to monitor absorption at 570 nm at 37° C. Absorption values at 12˜20 min were used to calculate compound potency. The value of the DMSO blank (MIN inhibition=100% activity) was used as a negative control. The positive control was established by adding 8 μl of enzyme and DMSO mix into 10 μl of detection mix followed by addition of 2 μl of L-Arginine (MAX inhibition=0% activity). To calculate the percent activity, Equation 1 was used. Abs570nm is the value at a given compound concentration:
A counter-screen was performed to identify any inhibition of the coupling enzymes by the test compounds. 10 μl of 0.26 mM of urea with varying concentrations of compounds in 10 mM sodium phosphate, pH 7.4, 0.1 mM MnCl2 and 2% DMSO were added into 10 μl of detection mix in place of the arginase enzymatic reaction mix. Absorption was monitored at 570 nm as described above. The values of a no substrate blank (without urea; MAX inhibition=0% activity) and a DMSO blank (MIN inhibition=100% activity) were used as positive and negative controls respectively. […] Inactivity in the counter-screen was used to confirm that results accurately reflected IC50 values for ARG1 and ARG2.

IC50	Structure (SMILES)
100 to 1000 nM	CN[C@@]1(C(=O)O)c2cc(C3(NC(=O)[C@H](C)N)CCC3)c(F)cc2C[C@@H]1CCCB(O)O
< 100 nM	CN[C@@]1(C(=O)O)c2cc(CN)c(F)cc2C[C@@H]1CCCB(O)O
100 to 1000 nM	CN[C@@]1(C(=O)O)c2ccccc2C[C@@H]1CCCB(O)O
< 100 nM	CN[C@@]1(C(=O)O)c2cc([C@@H](N)C(C)C)c(Cl)cc2C[C@@H]1CCCB(O)O
100 to 1000 nM	CN[C@@]1(C(=O)O)c2cc(CN3CCC[C@H]3C(=O)O)c(F)cc2C[C@@H]1CCCB(O)O
< 100 nM	CN[C@@]1(C(=O)O)c2cc(C(C)(C)N)c(Cl)cc2C[C@@H]1CCCB(O)O
100 to 1000 nM	NCCc1cccc2c1C[C@H](CCCB(O)O)[C@]2(N)C(=O)O
< 100 nM	CN[C@@]1(C(=O)O)c2cc(CN3CCCCC3(C)C)c(F)cc2C[C@@H]1CCCB(O)O
< 100 nM	CN[C@@]1(C(=O)O)c2cc(C3(N)CCCC3)c(F)cc2C[C@@H]1CCCB(O)O
100 to 1000 nM	CN[C@@]1(C(=O)OC)c2cc(CN)c(Cl)cc2C[C@@H]1CCCB(O)O
< 100 nM	CC[C@@H](NC)c1cc2c(cc1F)C[C@H](CCCB(O)O)[C@]2(NC)C(=O)O
> 1000 nM	N#Cc1cccc2c1C[C@H](CCCB(O)O)[C@]2(N)C(=O)O
< 100 nM	NCCc1cc2c(cc1Cl)C[C@H](CCCB(O)O)[C@]2(N)C(=O)O
< 100 nM	CNCc1cc2c(cc1F)C[C@H](CCCB(O)O)[C@]2(NC)C(=O)O
< 100 nM	CN[C@@]1(C(=O)O)c2cc([C@@H](N)C(C)C)c(F)cc2C[C@@H]1CCCB(O)O
< 100 nM	CN[C@@]1(C(=O)O)c2cc([C@@H](N)C3CC3)c(F)cc2C[C@@H]1CCCB(O)O
100 to 1000 nM	CN[C@@]1(C(=O)O)c2c(F)cc(CN)cc2C[C@@H]1CCCB(O)O
< 100 nM	CN[C@@]1(C(=O)O)c2cc(-c3cccc(F)c3C(C)(C)N)c(F)cc2C[C@@H]1CCCB(O)O
< 100 nM	CN[C@@]1(C(=O)O)c2cc([C@H](N)C(C)C)c(F)cc2C[C@@H]1CCCB(O)O
100 to 1000 nM	CN[C@@]1(C(=O)O)c2cc(N3CC[C@H](O)C3)c(F)cc2C[C@@H]1CCCB(O)O
< 100 nM	CN[C@@]1(C(=O)O)c2cc(O[C@@H]3CCC[C@H]3N)c(F)cc2C[C@@H]1CCCB(O)O
< 100 nM	CN[C@@]1(C(=O)O)c2cc(C3(N)CCC3)c(Cl)cc2C[C@@H]1CCCB(O)O
< 100 nM	CN[C@@]1(C(=O)O)c2cc([C@H](N)C3CC3)c(Cl)cc2C[C@@H]1CCCB(O)O
100 to 1000 nM	CN[C@@]1(C(=O)O)c2cc(-c3ccccc3CO)c(F)cc2C[C@@H]1CCCB(O)O
< 100 nM	CN[C@@]1(C(=O)O)c2cc(-c3ccc(F)cc3CN)c(F)cc2C[C@@H]1CCCB(O)O

IC50	Structure (SMILES)
< 100 nM	CN[C@@]1(C(=O)O)c2cc(Cn3ccnc3N)c(Cl)cc2C[C@@H]1CCCB(O)O
< 100 nM	CN[C@@]1(C(=O)O)c2cc(C3CCNCC3)c(F)cc2C[C@@H]1CCCB(O)O
< 100 nM	CN[C@@]1(C(=O)O)c2cc([C@H](C)N)c(Cl)cc2C[C@@H]1CCCB(O)O
100 to 1000 nM	CN[C@@]1(C(=O)O)c2cc(CO)c(Cl)cc2C[C@@H]1CCCB(O)O
< 100 nM	CNCc1cc2c(cc1Cl)C[C@H](CCCB(O)O)[C@]2(NC)C(=O)O
100 to 1000 nM	CN[C@@]1(C(=O)O)c2cc(N)c(Cl)cc2C[C@@H]1CCCB(O)O
100 to 1000 nM	COc1ccc2c(c1)[C@@](N)(C(=O)O)[C@@H](CCCB(O)O)C2
< 100 nM	CN[C@@]1(C(=O)O)c2cc(C3(N)CCCCC3)c(F)cc2C[C@@H]1CCCB(O)O
100 to 1000 nM	CN(C)[C@@]1(C(=O)O)c2cc(CN)ccc2C[C@@H]1CCCB(O)O
< 100 nM	CN[C@@]1(C(=O)O)c2cc(OCCN)ccc2C[C@@H]1CCCB(O)O
< 100 nM	CN[C@@]1(C(=O)O)c2cc(CN3CCC(c4ccccc4)CC3)c(F)cc2C[C@@H]1CCCB(O)O
< 100 nM	CN[C@@]1(C(=O)O)c2cc(-c3ccccc3CCN)c(F)cc2C[C@@H]1CCCB(O)O
< 100 nM	CC[C@@H](N)c1cc2c(cc1Cl)C[C@H](CCCB(O)O)[C@]2(NC)C(=O)O
< 100 nM	CN[C@@]1(C(=O)O)c2cccc(CN)c2C[C@@H]1CCCB(O)O
< 100 nM	CN[C@@]1(C(=O)O)c2cc(OC)c(CN)cc2C[C@@H]1CCCB(O)O
100 to 1000 nM	CCN[C@@]1(C(=O)O)c2cc(OC)c(CN)cc2C[C@@H]1CCCB(O)O
< 100 nM	CN[C@@]1(C(=O)O)c2cc([C@H](C)N)c(OCC(F)(F)F)cc2C[C@@H]1CCCB(O)O
< 100 nM	CN[C@@]1(C(=O)O)c2cc(CN)c(Cl)cc2C[C@@H]1CCCB(O)O
< 100 nM	CN[C@@]1(C(=O)O)c2cc([C@H](C)N)c(F)cc2C[C@@H]1CCCB(O)O
100 to 1000 nM	CNCc1cccc2c1C[C@H](CCCB(O)O)[C@]2(NC)C(=O)O
< 100 nM	CC[C@H](N)c1cc2c(cc1F)C[C@H](CCCB(O)O)[C@]2(NC)C(=O)O
< 100 nM	CN[C@@]1(C(=O)O)c2cc([C@H](C)N)ccc2C[C@@H]1CCCB(O)O
> 1000 nM	N[C@@]1(C(=O)O)c2cccc(CO)c2C[C@@H]1CCCB(O)O
< 100 nM	CN[C@@]1(C(=O)O)c2cc(CNC3CCCC3)c(F)cc2C[C@@H]1CCCB(O)O

From US12226425B2, “Inhibitors of ARG1 and/or ARG2” (Arcus Biosciences, Inc., priority 2018, dated 2025)
